Measured values: ChEMBL document CHEMBL1201862, “PubChem BioAssay data set” (2004)
Calls of active or inactive are those of the source.

How the values were obtained:
Aminopeptidase N = target: T1, Aminopeptidase N (Plasmodium falciparum FcB1/Columbia, UniProt O96935); assay: P. falciparum M1AAP inhibitors, biochemical, fluorogenic H-Leu-NHMec substrate, 1536-well (AID 1445); set-up: species or system Plasmodium falciparum 3D7, 3D7
T1 sequence (O96935 whole entry): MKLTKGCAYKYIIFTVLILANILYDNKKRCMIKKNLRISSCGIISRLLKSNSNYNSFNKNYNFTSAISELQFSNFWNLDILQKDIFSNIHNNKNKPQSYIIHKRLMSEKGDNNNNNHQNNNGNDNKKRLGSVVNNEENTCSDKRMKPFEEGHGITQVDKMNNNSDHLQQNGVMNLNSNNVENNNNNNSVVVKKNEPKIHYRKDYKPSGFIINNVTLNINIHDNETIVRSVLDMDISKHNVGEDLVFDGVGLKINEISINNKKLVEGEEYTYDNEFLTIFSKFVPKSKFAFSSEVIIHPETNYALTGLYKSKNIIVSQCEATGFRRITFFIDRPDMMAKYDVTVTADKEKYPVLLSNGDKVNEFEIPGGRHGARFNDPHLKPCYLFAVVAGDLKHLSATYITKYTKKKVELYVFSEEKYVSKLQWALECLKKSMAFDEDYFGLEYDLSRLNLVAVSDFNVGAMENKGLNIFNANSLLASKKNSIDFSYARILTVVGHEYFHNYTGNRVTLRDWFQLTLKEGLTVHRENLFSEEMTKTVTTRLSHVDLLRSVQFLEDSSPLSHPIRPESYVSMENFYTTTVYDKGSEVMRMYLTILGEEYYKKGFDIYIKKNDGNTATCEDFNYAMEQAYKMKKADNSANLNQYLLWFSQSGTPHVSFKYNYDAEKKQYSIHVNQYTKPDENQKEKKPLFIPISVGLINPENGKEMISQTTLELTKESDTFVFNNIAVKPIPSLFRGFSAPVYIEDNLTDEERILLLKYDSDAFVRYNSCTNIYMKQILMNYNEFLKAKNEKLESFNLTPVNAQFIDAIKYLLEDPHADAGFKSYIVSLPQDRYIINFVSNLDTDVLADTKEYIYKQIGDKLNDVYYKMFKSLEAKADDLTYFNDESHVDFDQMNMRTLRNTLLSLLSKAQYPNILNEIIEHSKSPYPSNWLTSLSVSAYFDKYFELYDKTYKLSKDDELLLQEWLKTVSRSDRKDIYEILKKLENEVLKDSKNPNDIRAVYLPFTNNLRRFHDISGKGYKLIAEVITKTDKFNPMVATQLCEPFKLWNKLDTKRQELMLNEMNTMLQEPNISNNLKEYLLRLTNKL

Nonstructural protein 1 = Nonstructural protein 1 (Influenza A virus, UniProt Q194T2); type: functional, Influenza A virus (A/California/07/2009(H1N1))
Sequence of Nonstructural protein 1 (Q194T2 whole entry): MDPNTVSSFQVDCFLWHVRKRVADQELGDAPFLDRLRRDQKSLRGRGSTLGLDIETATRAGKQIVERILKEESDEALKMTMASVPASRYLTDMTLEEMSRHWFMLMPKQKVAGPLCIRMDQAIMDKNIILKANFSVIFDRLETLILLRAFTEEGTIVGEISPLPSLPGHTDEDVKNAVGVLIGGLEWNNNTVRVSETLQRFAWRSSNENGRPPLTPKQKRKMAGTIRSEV

[1] = target: 26S proteasome non-ATPase regulatory subunit 14 (Homo sapiens, UniProt O00487); assay: inhibition of proteasome subunit RPN11 – biochemical, fluorescence polarization, uHTS hits, confirmation (AID 602368); type: functional
Sequence of 26S proteasome non-ATPase regulatory subunit 14 (O00487 whole entry): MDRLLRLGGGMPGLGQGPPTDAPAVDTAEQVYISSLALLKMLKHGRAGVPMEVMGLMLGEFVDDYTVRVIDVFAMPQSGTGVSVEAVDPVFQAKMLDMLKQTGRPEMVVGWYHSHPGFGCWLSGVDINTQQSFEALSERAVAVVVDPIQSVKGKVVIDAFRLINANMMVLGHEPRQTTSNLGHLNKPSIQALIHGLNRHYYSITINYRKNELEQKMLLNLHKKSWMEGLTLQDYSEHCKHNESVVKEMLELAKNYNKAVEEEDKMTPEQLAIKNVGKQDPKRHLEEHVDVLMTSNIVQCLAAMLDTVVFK

[2] = target: 72 kDa type IV collagenase (Homo sapiens, UniProt P08253); assay: Dose Response validation of uHTS RPN11 inhibitor hits using a MMP-2 Fluorescence assay.; type: functional
Sequence of 72 kDa type IV collagenase (P08253 whole entry): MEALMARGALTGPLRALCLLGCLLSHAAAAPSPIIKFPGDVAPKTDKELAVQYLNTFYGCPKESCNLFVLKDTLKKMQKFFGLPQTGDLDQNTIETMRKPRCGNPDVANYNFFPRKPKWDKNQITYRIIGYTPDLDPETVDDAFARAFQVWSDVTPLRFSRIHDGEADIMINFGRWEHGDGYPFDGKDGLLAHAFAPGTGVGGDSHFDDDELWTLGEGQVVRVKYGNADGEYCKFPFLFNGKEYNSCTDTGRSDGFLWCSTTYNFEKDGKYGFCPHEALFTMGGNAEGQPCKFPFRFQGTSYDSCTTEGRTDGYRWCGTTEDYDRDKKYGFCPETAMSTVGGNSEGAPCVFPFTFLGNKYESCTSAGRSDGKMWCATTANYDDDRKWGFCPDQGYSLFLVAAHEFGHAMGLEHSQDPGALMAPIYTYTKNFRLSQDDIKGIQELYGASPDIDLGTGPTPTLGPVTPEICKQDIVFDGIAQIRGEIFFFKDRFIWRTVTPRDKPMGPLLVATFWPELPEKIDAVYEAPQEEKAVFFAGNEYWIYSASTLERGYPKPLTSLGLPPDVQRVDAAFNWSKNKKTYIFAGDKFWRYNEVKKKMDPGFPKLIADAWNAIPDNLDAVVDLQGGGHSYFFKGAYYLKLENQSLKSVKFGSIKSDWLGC

Prothrombin = Prothrombin (Bos taurus, UniProt P00735); assay: thrombin inhibition, dose response, biochemical, fluorescence polarization, uHTS hits (AID 602369); type: functional
Vero = assay: Vero E6 cell cytotoxicity, SAR follow-up, cytotoxicity control for West Nile virus antiviral project, synthesized analogs (AID 2244); type: functional; conditions: Chlorocebus sabaeus
Trypsin = Trypsin (Sus scrofa, UniProt P00761); assay: porcine trypsin inhibitors, dose response, selectivity assay for Rce1 protease inhibitor project, biochemical, quenched peptide fluorescence, cherry-pick (AID 488789)
Sequence of Trypsin (P00761 whole entry): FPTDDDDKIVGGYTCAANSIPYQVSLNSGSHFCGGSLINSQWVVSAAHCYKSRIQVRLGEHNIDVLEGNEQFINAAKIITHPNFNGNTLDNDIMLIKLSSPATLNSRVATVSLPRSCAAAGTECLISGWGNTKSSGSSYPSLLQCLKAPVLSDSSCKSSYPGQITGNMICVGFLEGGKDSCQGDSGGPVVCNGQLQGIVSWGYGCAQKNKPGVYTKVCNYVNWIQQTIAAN

CAAX prenyl protease 2 = target: T2, CAAX prenyl protease 2 (Homo sapiens, UniProt Q9Y256); assay: human Rce1 protease inhibitors, dose response, biochemical, yeast membranes, quenched-peptide fluorescence, cherry-pick (AID 588849)
T2 sequence (Q9Y256 whole entry): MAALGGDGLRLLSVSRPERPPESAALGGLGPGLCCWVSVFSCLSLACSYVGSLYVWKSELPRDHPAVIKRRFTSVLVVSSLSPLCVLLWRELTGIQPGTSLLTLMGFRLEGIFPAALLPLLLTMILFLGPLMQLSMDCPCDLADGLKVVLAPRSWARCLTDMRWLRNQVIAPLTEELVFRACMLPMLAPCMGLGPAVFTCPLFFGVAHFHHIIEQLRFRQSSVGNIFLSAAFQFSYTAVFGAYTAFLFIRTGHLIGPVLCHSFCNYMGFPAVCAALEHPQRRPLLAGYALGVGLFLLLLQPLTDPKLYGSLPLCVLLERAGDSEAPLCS

[3] = Luminescence Cell-Based Dose Retest to Confirm Inhibitors of Cancer Stem Cells. [Related pubchem assays (depositor defined):AID2717, AID2721]; type: functional; conditions: Homo sapiens
[4] = target: FAD-linked sulfhydryl oxidase ALR (Homo sapiens, UniProt P55789); assay: inhibitors of human ALR sulfhydryl oxidase, dose response, biochemical, H2O2 detection, luminescence, cherry-pick (AID 493248)
Sequence of FAD-linked sulfhydryl oxidase ALR (P55789 whole entry): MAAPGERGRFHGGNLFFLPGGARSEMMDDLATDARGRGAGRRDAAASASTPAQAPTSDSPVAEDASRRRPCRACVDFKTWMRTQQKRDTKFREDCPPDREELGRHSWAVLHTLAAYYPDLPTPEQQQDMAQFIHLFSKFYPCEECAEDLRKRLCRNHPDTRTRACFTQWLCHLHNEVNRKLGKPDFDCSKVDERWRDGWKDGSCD

INS1 = assay: beta cell apoptosis inhibitors, cytokine rescue, dose response, luminescence, retest (AID 449756); type: functional, cell-based; conditions: Rattus norvegicus;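 also: cell death triggered by IL-1 beta plus TNF-alpha plus IFN-gamma mixture; protective hits raise ATP signal compared with cytokine alone wells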
[5] = target: T3, Short transient receptor potential channel 4 (Mus musculus, UniProt Q9QUQ5); assay: mouse TRPC4 channel inhibitors, dose response, cell-based, HEK293 TRPC4/mu-opioid, Fluo-4 calcium (AID 434942); type: functional;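 also: potency of inhibitors blocking the TRPC4 calcium response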
T3 sequence (Q9QUQ5 whole entry): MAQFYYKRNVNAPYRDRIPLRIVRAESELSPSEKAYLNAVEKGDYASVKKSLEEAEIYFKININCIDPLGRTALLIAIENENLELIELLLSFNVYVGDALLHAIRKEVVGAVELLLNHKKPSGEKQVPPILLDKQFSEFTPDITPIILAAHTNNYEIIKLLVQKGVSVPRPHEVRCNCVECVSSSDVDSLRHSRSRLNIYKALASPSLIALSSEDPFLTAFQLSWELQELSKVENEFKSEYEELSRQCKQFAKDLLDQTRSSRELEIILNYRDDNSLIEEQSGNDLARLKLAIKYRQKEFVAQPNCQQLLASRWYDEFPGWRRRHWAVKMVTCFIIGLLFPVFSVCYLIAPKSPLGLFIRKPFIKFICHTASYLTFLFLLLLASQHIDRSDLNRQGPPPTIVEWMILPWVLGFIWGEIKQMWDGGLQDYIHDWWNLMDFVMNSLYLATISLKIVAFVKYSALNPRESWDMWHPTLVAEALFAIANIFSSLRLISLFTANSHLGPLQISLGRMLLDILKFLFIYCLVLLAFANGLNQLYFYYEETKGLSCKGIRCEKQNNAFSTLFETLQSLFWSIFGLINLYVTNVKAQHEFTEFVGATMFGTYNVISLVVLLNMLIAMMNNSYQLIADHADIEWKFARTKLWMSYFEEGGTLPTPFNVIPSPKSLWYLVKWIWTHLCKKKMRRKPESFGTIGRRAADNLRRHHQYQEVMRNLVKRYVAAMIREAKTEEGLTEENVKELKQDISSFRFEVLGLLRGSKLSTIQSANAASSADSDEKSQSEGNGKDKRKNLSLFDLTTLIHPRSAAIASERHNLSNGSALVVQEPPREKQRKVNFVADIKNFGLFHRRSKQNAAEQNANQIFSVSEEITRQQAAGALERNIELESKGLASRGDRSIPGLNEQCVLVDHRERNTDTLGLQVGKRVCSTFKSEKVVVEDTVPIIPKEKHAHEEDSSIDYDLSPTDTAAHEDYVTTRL

HeLa = assay: HeLa cell cytotoxicity, dose response, cytotoxicity control, 24 h, cherry-picked samples (AID 504726); type: functional, cell-based; conditions: Homo sapiens;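 also: potency for cytotoxicity as loss of luminescence signal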
[6] = target: Glucose-6-phosphate 1-dehydrogenase (Homo sapiens, UniProt P11413); assay: human G6PD enzyme inhibitors, dose response, selectivity assay for P. falciparum G6PD inhibitor project, biochemical, fluorescence (AID 504792); type: functional
Sequence of Glucose-6-phosphate 1-dehydrogenase (P11413 whole entry): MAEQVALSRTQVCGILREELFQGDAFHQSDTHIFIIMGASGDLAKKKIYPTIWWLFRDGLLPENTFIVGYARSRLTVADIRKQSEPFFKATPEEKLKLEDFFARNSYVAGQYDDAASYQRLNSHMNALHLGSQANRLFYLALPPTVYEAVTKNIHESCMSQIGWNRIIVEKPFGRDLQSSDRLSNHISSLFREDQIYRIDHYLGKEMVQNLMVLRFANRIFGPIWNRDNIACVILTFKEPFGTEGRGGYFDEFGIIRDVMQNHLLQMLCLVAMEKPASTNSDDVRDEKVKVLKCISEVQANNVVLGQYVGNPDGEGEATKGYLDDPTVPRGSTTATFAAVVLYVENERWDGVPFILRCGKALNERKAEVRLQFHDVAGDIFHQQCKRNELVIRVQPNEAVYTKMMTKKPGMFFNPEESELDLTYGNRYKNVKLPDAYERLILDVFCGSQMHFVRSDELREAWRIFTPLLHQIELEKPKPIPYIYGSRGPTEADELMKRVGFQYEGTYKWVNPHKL

Hexokinase HKDC1 = target: T4, Hexokinase HKDC1 (Homo sapiens, UniProt Q2TB90); assay: HKDC1 hexokinase inhibitors, dose response, biochemical, W721R variant (AID 504729); type: functional
T4 sequence (Q2TB90 whole entry): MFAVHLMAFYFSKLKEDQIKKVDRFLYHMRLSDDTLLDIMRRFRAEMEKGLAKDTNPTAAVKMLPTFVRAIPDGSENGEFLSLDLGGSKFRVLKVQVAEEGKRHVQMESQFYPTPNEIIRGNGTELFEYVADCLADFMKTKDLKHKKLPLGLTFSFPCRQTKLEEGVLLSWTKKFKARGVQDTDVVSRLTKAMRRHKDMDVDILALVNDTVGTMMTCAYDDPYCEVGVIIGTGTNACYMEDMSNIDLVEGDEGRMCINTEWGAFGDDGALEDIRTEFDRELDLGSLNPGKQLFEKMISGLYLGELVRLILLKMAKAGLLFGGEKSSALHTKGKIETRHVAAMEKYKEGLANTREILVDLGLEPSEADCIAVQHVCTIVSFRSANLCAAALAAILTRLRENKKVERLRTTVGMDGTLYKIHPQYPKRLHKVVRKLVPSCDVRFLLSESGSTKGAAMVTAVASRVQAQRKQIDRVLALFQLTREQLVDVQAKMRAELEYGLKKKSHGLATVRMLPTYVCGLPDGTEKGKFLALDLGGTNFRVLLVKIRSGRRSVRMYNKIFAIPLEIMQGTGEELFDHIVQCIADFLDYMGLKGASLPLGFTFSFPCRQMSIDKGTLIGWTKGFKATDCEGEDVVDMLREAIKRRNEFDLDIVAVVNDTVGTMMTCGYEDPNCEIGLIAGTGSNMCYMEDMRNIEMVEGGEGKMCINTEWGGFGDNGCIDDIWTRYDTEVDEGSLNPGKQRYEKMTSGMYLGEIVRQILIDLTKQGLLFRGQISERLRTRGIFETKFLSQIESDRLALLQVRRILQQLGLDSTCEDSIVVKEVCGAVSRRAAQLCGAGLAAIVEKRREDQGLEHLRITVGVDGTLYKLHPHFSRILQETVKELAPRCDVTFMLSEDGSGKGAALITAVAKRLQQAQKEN

[7] = NIH-3T3 fibroblast cytotoxicity, dose response, cytotoxicity control, cell-based, fluorescence, Alamar Blue, secondary assay (AID 2327); type: functional;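 also: NIH-3T3 mouse fibroblasts cultured with fluconazole at 8 µg/mL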
cells [8] = type: functional, cell-based
[9] = C. albicans growth with fluconazole, confirmation, fluorescence, retest (AID 2467); type: functional, cell-based
cells [10] = type: functional, cell-based; remark: listed apart in the source
[11] = THP-1 cell cytotoxicity, dose response, cytotoxicity control for non-replicating M. tuberculosis project (AID 489025); type: functional
[12] = HepG2 cell cytotoxicity, dose response, cytotoxicity control for non-replicating M. tuberculosis project (AID 489018); type: functional; conditions: Mycobacterium tuberculosis
[13] = Vero E6 cell cytotoxicity, dose response, cytotoxicity control for non-replicating M. tuberculosis project, secondary assay (AID 492998); type: functional, VeroE6; conditions: Vero C1008
Albumin = Albumin (Bos taurus, UniProt P02769); assay: Counterscreen for inhibitors of T-cell receptor (TCR)-CD3 interaction: Fluorescence-based biochemical high throughput dose response assay to identify inhibitors of T-cell receptor (TCR)-CD3 interaction using a TAMRA-labeled BSA probe.; type: functional
Sequence of Albumin (P02769 whole entry): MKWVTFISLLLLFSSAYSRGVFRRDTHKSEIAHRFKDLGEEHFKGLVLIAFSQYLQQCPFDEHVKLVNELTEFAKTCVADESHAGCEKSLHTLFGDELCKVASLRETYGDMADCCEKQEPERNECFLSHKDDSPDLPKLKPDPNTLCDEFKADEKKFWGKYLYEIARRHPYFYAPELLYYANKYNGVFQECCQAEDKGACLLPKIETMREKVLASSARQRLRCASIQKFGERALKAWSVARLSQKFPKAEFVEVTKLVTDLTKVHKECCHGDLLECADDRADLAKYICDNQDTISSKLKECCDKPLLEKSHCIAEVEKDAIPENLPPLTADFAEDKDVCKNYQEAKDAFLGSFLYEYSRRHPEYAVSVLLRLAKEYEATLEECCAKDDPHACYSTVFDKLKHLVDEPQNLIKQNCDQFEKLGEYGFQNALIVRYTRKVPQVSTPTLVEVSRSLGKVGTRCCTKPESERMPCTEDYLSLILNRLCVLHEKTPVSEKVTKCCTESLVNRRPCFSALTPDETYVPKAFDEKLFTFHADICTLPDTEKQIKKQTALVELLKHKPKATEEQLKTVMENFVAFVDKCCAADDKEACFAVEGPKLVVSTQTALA

Cc1cc(O)nc(NN/C=C2/C(=O)N(c3ccccc3)C(=O)c3ccccc32)n1
IC50 (Aminopeptidase N): 47 µM (active) | IC50 (Nonstructural protein 1): 12 µM (active) | IC50 [1]: 18.4 µM (active) | IC50 [2]: > 100 µM (inactive) | IC50 (Prothrombin): 37.2 µM (active)

COc1ccc(-c2csc(NC(=O)c3ccc(Cl)cc3)n2)cc1
CC50 (Vero): > 40 µM (active)

COc1cc(Cn2c(N)c(C(=O)NCc3ccco3)c3nc4ccccc4nc32)cc(OC)c1OC
AC50 (Trypsin): 22.3 µM (active) | AC50 (CAAX prenyl protease 2): 3.86 µM (active)

O=C(Nc1nc(-c2ccc(Cl)cc2)cs1)c1cccc(Cl)c1
CC50 (Vero): < 0.08 µM (active)

Cc1ccc(NNC(=O)c2ccno2)cc1Cl
AC50 [3]: 2.34 µM (active) | AC50 [4]: 0.223 µM (active) | AC50 (INS1): 7.1 µM (active)

COc1ccc(-c2csc(NC(=O)Cc3cccc4ccccc34)c2C(=O)O)cc1
IC50 (Aminopeptidase N): 42.3 µM (active) | EC50 [5]: 7.5 µM (active)

COc1ccc(C2c3ccc(O)cc3Oc3ncn(CCCO)c(=N)c32)cc1OC (stereo not drawn)
AC50 (HeLa): > 350 µM (inactive)

COc1cc(/C=C2\SC(c3ccc(C)cc3)=NC2=O)ccc1O
IC50 [6]: > 80 µM (inactive) | IC50 (Hexokinase HKDC1): 38.3 µM (inactive)

CC(=O)Nc1cccc(NC(=O)C2CCCN2C(=O)Nc2cccc(F)c2)c1 (stereo not drawn)
IC50 (Aminopeptidase N): 68.9 µM (active)

O=[N+]([O-])c1ccc(NN=Cc2ccc(O)cc2O)nc1
IC50 (Hexokinase HKDC1): 6.23 µM (active)

O=C(N/N=C/c1cc(Br)cc(Cl)c1O)c1ccc2c(c1)OCO2
EC50 [7]: > 150 µM (inactive) | EC50 (cells [8]): 22.1 µM (active) | EC50 [9]: 1.03 µM (active) | EC50 (cells [10]): > 350 µM (not active) | CC50 [11]: 1.95 µM (active) | CC50 [12]: 16.1 µM (active) | CC50 [13]: 7.35 µM (active) | AC50 (INS1): 4.16 µM (active) | IC50 [1]: 15.5 µM (active) | IC50 [2]: 65.4 µM (active) | IC50 (Prothrombin): 33.8 µM (active) | IC50 (Albumin): > 94.1 µM (inactive)

COc1ccc(/C=N/Nc2ccccn2)cc1OC
AC50 [4]: 0.771 µM (active)

Cc1ccc2nc(C)cc(N/N=C/c3cccc(O)c3)c2c1
AC50 [4]: 1.02 µM (active)
